Laboratory results from patent US20170202854A1, “Method for Treatment of Primary Hormone Resistant Endometrial and Breast Cancers” (Lipoxen Technologies Limited, priority 2014, published 2017).
Where two headings read alike, the source gives them in different places.

Experiments:
[1] = system: human primary PR-negative endometrial cancer cells HEC-1B; experiment: Mouse model of primary PR-negative endometrial cancer (HEC-1B xenograft); format: in vivo, BNX nu/nu mice; details: mean±SD of 20 tumors, MA 10 mg/day i.p. 5 days/week, SC 0.3 mg/kg i.m. each alternate day
Experimental: Treatment was started on the next day after the injection and discontinued after 5 weeks. Cohorts (10 mice/group) received either:
1) Vehicle control group: vehicle only, 0.9% sodium chloride for injection i.m each alternate day and i.p. for 5 days/week. 2) MA only control group: megestrol acetate (MA) (10 mg/day) i.p. for 5 days/week.
Tumors were measured every week with vernier calipers. Tumor size was calculated using the formula: A (length)×B (width)×C (height)×0.5236.

[2] = system: secondary PR negative Ishikawa cells; experiment: Model of secondary PR-negative endometrial cancer (progestin-resistant Ishikawa xenograft); format: in vivo, MF-1 female nude mice; details: MPA 250 mg/kg/day i.p. 5 days per week, SC 0.3 mg/kg i.m. each alternate day
Experimental: to obtain the secondary progestin-resistant subclones of human endometrial cancer cells, initially progestin sensitive PR-positive effect parent Ishikawa cells were routinely cultured in DMEM/F12 medium supplemented with 5% fetal bovine serum and medroxyprogesterone acetate (MPA) with 2.5 μM increases in MPA concentration (1.0-10 μM) every 4 weeks at 37° C. in a humidified atmosphere of 5% CO2. When the surviving cells had grown to a high density but were still less than confluent, cells were subcloned using 0.02% EDTA and 0.25% trypsin prepared in Hanks' balanced salt solution. MPA-containing medium was replaced every 2-3 days. Cells proliferating in 10 μM MPA with the same doubling time as the initial Ishikawa cells proliferating in the medium without MPA, were considered as secondary progestin-resistant Ishikawa cells. […] 2×10^6 secondary PR negative Ishikawa cells were inoculated into the flanks of MF-1 female nude mice in 100 μl Matrigel.
1) Vehicle control group: vehicle only, −0.9% sodium chloride for injection i.m each alternate day and i.p. for 5 days per week. 2) MPA only control group: medroxyprogesterone acetate (MPA) (250 mg/kg/day) i.p. for 5 days per week.
Tumors were measured with vernier calipers weekly. Tumor volumes (mm^3) were calculated using the modified ellipsoid formula: (length (mm)×width (mm)^2)/2. The ratio (percentage) of “Tumor volume at day n” to “tumor volume at day “0” was calculated for each animal. At the end of the experiments (day 35) animals were euthanized.

MDA-MB-468 tumor cells = details: day 21, alone or with SC 6 mg/mouse i.m. twice a week
Experimental: The MDA-MB-468 (ATCC collection number ATCC® HTB-132, Neve et al., Cancer Cell 2006, 10:515-527) tumor cells (the xenograft of human primary ER-negative breast cancer) were maintained in vitro as a monolayer culture in L-15 medium supplemented with 10% heat inactivated fetal bovine serum, 100 U/ml penicillin and 100 μg/ml streptomycin, and L-glutamine (2 mM) at 37° C. in an atmosphere of 5% CO2 in air. The tumor cells were routinely subcultured twice weekly by trypsin-EDTA treatment. The cells growing in an exponential growth phase were harvested and counted for tumor inoculation.
BALB/c nude (Shanghai Sino-British SIPPR/BK Laboratory Animal Co., Ltd.), 6-8 weeks old female mice were inoculated subcutaneously at the right flank with MDA-MB-468 tumor cells (1×10^7) in 0.2 ml of PBS supplemented with BD Matrigel (1:1) for tumor development. The treatments were started on day 17 after tumor inoculation when the average tumor size reached approximately 170 mm^3. […] Each group consisted of 8 tumor-bearing mice.
Tumor size was measured twice weekly in two dimensions using a caliper, and the volume was expressed in mm3 using the formula: V=0.5 a×b2 where a and b are the long and short diameters of the tumor, respectively.
Significance level was assumed as 0.05.

[3] = TAM 50 mg/kg oral gavage every day
[4] = TAM 100 mg/kg oral gavage every day

CC(=O)O[C@]1(C(C)=O)CC[C@H]2[C@@H]3C=C(C)C4=CC(=O)CC[C@]4(C)[C@H]3CC[C@@]21C [MA, megestrol acetate]
Tumor volume ([1]; Week 1): 58 ± 16 mm^3
Tumor volume ([1]; Week 2): 177 ± 19 mm^3
Tumor volume ([1]; Week 3): 510 ± 66 mm^3
Tumor volume ([1]; Week 4): 794 ± 111 mm^3
Tumor volume ([1]; Week 5): 1383 ± 151 mm^3

CC(=O)O[C@]1(C(C)=O)CC[C@H]2[C@@H]3C[C@H](C)C4=CC(=O)CC[C@]4(C)[C@H]3CC[C@@]21C [MPA, medroxyprogesterone acetate]
Tumor volume at day n/tumor volume at day "0", %, mean ± SEM ([2]; Day 7): 170 ± 19%
Tumor volume at day n/tumor volume at day "0", %, mean ± SEM ([2]; Day 14): 412 ± 36%
Tumor volume at day n/tumor volume at day "0", %, mean ± SEM ([2]; Day 21): 512 ± 66%
Tumor volume at day n/tumor volume at day "0", %, mean ± SEM ([2]; Day 28): 822 ± 89%
Tumor volume at day n/tumor volume at day "0", %, mean ± SEM ([2]; Day 35): 1224 ± 99%

CC/C(=C(\c1ccccc1)c1ccc(OCCN(C)C)cc1)c1ccccc1 [TAM, Tamoxifen]
TGI (MDA-MB-468 tumor cells; [3]): −65%
Tumor volume (MDA-MB-468 tumor cells; [3]): 473 ± 59 mm^3
TGI (MDA-MB-468 tumor cells; [4]): −1%
Tumor volume (MDA-MB-468 tumor cells; [4]): 355 ± 25 mm^3
